Source: publication PMC3189207, “DomPep—A General Method for Predicting Modular Domain-Mediated Protein-Protein Interactions” (PLoS ONE, 2011)
Residues, ends and D or L forms follow the SMILES beside them.

Key:
[1] = molecular target: T1, Scrib PDZ-1 domain (Homo sapiens, UniProt Q14160); test: In-solution fluorescence polarization binding of peptides to Scrib PDZ1; settings: Kd value of 100 µM applied as binding cutoff, NB without definition, read-out: Kd (µM) PDZ1
T1 construct: ROC curves of DomPep prediction for the three Scrib PDZ-1/2/3 domains

[2] = molecular target: T2, Scrib PDZ-3 domain (Homo sapiens, UniProt Q14160); test: In-solution fluorescence polarization binding of peptides to Scrib PDZ3; settings: Kd value of 100 µM applied as binding cutoff, NB without definition
T2 construct: ROC curves of DomPep prediction for the three Scrib PDZ-1/2/3 domains
T2 sequence (Q14160 1004-1093 limits assumed): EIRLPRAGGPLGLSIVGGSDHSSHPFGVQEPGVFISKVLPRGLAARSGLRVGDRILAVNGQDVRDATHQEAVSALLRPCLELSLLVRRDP
Description: Because DomPep compared favorably to MDSM in identifying ligands for a PDZ domain included in the training set and to SPSSM in identifying binding peptides for an untrained PDZ domain, we next tested it whether it could reliably PPIs mediated by a PDZ domain on the genome scale. To this end, we employed three DomPep models to predict interactions between the Scrib PDZ domains and human proteins from the Swiss-Prot protein database. The three prediction models, which were generated for the mouse Scrib PDZ-1, PDZ-2 and PDZ-3 domains, were trained with 6, 5 and 30 positive peptide, respectively (Table S1). Searching the protein database with these models yielded a list of potential PDZ ligands. […] This experiment identified 14, 14, and 38 positives for the PDZ-1, -2, and -3 domains, respectively (Table 1). […] Importantly, we identified four peptides that were not included in the training set as physiological binders to the Scrib PDZ domains. The corresponding proteins, namely APC, LPP, VANGL2 and ZO2, were previously reported to interact with Scrib in vivo via its PDZ domains, [36], [37], [38], [39].
Figure 4 Application of DomPep to the prediction of PDZ-binding ligands. ROC curves of DomPep prediction for the three Scrib PDZ-1/2/3 domains using 56 peptides selected from the human protein database as the test set. The respective affinities of the three domains for the 56 peptides were measured by fluorescence polarization (Table 1).

[3] = molecular target: T3, Scrib PDZ-2 domain (Homo sapiens, UniProt Q14160); test: In-solution fluorescence polarization binding of peptides to Scrib PDZ2; settings: Kd value of 100 µM applied as binding cutoff, NB without definition, read-out: Kd (µM) PDZ2
T3 construct: ROC curves of DomPep prediction for the three Scrib PDZ-1/2/3 domains
T3 sequence (Q14160 862-950 limits assumed): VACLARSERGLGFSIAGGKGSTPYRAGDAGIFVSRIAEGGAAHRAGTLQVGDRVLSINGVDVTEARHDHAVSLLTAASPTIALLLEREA

T1 sequence (Q14160 728-815 limits assumed): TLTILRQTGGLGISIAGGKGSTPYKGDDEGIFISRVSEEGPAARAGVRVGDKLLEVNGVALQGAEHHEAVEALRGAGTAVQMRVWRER

Row | SMILES | Kd [1] | Kd [2] | Kd [3]
1 | CC(C)C[C@H](NC(=O)[C@H](C)NC(=O)[C@@H](NC(=O)[C@H](CO)NC(=O)[C@@H](N)CO)[C@@H](C)O)C(=O)N[C@@H](Cc1c[nH]cn1)C(=O)N[C@@H](CCC(N)=O)C(=O)N[C@@H](Cc1c[nH]cn1)C(=O)N[C@@H](Cc1c[nH]cn1)C(=O)N[C@@H](Cc1ccccc1)C(=O)O [LIMD1] (H-SSTALHQHHF-OH; N-terminus and C-terminus assumed) | > 100 µM | > 100 µM | > 100 µM
2 | CC(C)C[C@H](NC(=O)[C@@H](NC(=O)[C@H](CCCCN)NC(=O)[C@H](CC(C)C)NC(=O)[C@H](Cc1ccccc1)NC(=O)[C@H](CCCCN)NC(=O)[C@H](CCC(=O)O)NC(=O)[C@H](Cc1ccccc1)NC(=O)[C@H](CC(=O)O)NC(=O)[C@@H](N)CCC(N)=O)[C@@H](C)O)C(=O)O [MTERFD1] (H-QDFEKFLKTL-OH; N-terminus and C-terminus assumed) | > 100 µM | > 100 µM | > 100 µM
3 | CC(C)C[C@H](NC(=O)[C@@H](N)C(C)C)C(=O)N[C@@H](CCC(N)=O)C(=O)N[C@@H](CCCNC(=N)N)C(=O)N[C@@H](Cc1c[nH]cn1)C(=O)N[C@H](C(=O)N[C@H](C(=O)NCC(=O)N[C@@H](CCCCN)C(=O)N[C@@H](C)C(=O)O)[C@@H](C)O)[C@@H](C)O [ACBD6] (H-VLQRHTTGKA-OH; N-terminus and C-terminus assumed) | > 100 µM | > 100 µM | > 100 µM
4 | CC[C@H](C)[C@H](NC(=O)[C@@H]1CCCN1C(=O)[C@@H]1CCCN1C(=O)[C@@H](NC(=O)[C@H](CO)NC(=O)[C@H](Cc1ccc(O)cc1)NC(=O)[C@H](CC(C)C)NC(=O)[C@@H](NC(=O)[C@@H](NC(=O)[C@@H](N)CO)C(C)C)C(C)C)[C@@H](C)O)C(=O)O [FLT1] (H-SVVLYSTPPI-OH; N-terminus and C-terminus assumed) | > 100 µM | > 100 µM | > 100 µM
5 | CC(C)C[C@H](NC(=O)[C@H](CC(C)C)NC(=O)[C@@H](NC(=O)CNC(=O)[C@H](Cc1ccc(O)cc1)NC(=O)[C@H](CC(C)C)NC(=O)[C@H](CCC(N)=O)NC(=O)[C@H](C)NC(=O)[C@@H](N)CCCCN)[C@@H](C)O)C(=O)N[C@@H](CC(N)=O)C(=O)O [BEGAIN] (H-KAQLYGTLLN-OH; N-terminus and C-terminus assumed) | > 100 µM | > 100 µM | > 100 µM
6 | CSCC[C@H](NC(=O)[C@H](CC(C)C)NC(=O)[C@@H](NC(=O)[C@H](CS)NC(=O)[C@H](CCCCN)NC(=O)CNC(=O)[C@H](CCCCN)NC(=O)[C@@H](NC(=O)[C@H](CCCNC(=N)N)NC(=O)[C@@H](N)CC(=O)O)C(C)C)[C@@H](C)O)C(=O)O [DIRAS1] (H-DRVKGKCTLM-OH; N-terminus and C-terminus assumed) | > 100 µM | > 100 µM | > 100 µM
7 | CC(C)C[C@H](NC(=O)[C@H](CCCCN)NC(=O)[C@H](CO)NC(=O)[C@H](CCC(=O)O)NC(=O)[C@H](CO)NC(=O)[C@@H](NC(=O)[C@H](CCC(N)=O)NC(=O)[C@@H]1CCCN1C(=O)[C@H](CCCCN)NC(=O)[C@@H](N)C(C)C)C(C)C)C(=O)O [PTE1] (H-VKPQVSESKL-OH; N-terminus and C-terminus assumed) | > 100 µM | > 100 µM | > 100 µM
8 | CC(C)[C@H](NC(=O)[C@H](CCCNC(=N)N)NC(=O)[C@@H](N)CC(=O)O)C(=O)N[C@@H](C)C(=O)N[C@@H](CCC(=O)O)C(=O)N[C@@H](CCC(N)=O)C(=O)N[C@@H](CC(=O)O)C(=O)N[C@H](C(=O)N[C@@H](CCC(N)=O)C(=O)N[C@@H](C)C(=O)O)[C@@H](C)O [MPG] (H-DRVAEQDTQA-OH) | > 100 µM | 186 µM | > 100 µM
